The values below come from patent US6902724B1, “Enhanced efficacy basic aluminum halides, antiperspirant active compositions and methods for making” (Reheis, Inc., priority 2004, dated 2005).

Test [1] is described as follows: In vitro model: pore blocking of Millipore filter (IVMI). The conditions noted are these: 0.185 molar aluminum solution; pH 10 buffer; 0.25% NaCl; 100 mm H2O; inverse relation to % sweat reduction. From the text:
The apparatus and test protocol are based on method described by Reller and Leudders (Reller, H. H. and Leudders, W. L., Advances in Modern Toxicology, 4: 1-59 (1977)) and EP 0586235 B1 disclosures of which are incorporated herein by reference. Reller and Leudders described a millipore system which they used to measure the obstruction caused by the neutralization of various metal salts. They then compared their in vitro findings with those obtained for antiperspirant efficacy of the salts which had been tested in humans and found a reasonable correlation. A modified version of the apparatus and protocol described in […] were developed and used to determine the relative in vitro efficacy of antiperspirant actives. The system is shown schematically in FIG. 2 of the accompanying drawings. The system consists of four major components, namely the pressure control unit 1, the sweat reservoir II, the cell III and the measuring system IV.
The pressure control unit I consisted of a standard nitrogen gas cylinder 1 equipped with a pressure regulator 2 and connected to an on/off isolation valve 3 and pressure relief safety valve 4. The on/off valve 3 isolates the nitrogen cylinder 1 from the rest of the system. The majority of connections were made using ¼″ stainless steel tubing and swage lock fittings. […]

The conditions of test [2]: in vivo; cited from earlier work.

In the case of `[Cl][Al]([Cl])[Cl]` [aluminum chloride solution, aluminum chloride], in test [1], the “IVMI (In Vitro Model Index)” value was “lowest”. Moreover, in test [2], the “antiperspirancy among the various aluminum salts” value is recorded as “highest antiperspirancy”.
